Article PMC6272662, “Trypanocidal Activity of Long Chain Diamines and Aminoalcohols” (Molecules, 2015)
Read-outs that look alike come from different tables or passages of the source.

Assays:
Chagas disease = system: Chagas disease; set-up: method as in PMID 22614520, PMID 22760123, PMID 22686518, PMID 19967227; settings: ref [6],[7],[8],[9], cited from earlier work
[1] = system: Trypanosoma cruzi epimastigotes strain MG (MHOM/CO/04/MG); assay: Epimastigote susceptibility assay, MG strain (Trypan Blue and XTT); assay type: cell-based; settings: for MG Strain SI (Selectivity Index: LC50-macrophages/IC50-epimastigotes): MG strain epimastigotes vs J774.2 macrophages; for IC50 / MG Strain PNFX (potency relative to NFX = IC50-NFX/IC50-compound; also called NI): MG strain; for IC50: 72 h at 28 °C, 0.1-70.0 µM, mean ± SEM
Experimental: (§1) For in vitro studies, the strains MHOM/CO/04/MG (MG), MHOM/CO/05/JEM (JEM) and CL Brener strain clone B5 (CL-B5) were used. The MG and JEM strains correspond to Group I and Haplotype Ia isolates from two Colombian patients in the acute phase, and CL-B5 is a strain stably transfected with Escherichia coli β-galactosidase gene (lacZ). Epimastigotes were grown in plastic culture flasks at 28 °C, in axenic liver-infusion tryptose (LIT) growth medium, supplemented with 10% heat inactivated (30 min at 56 °C) foetal calf serum (FCS; Sigma), […] hemin (Sigma), and 10 µg/mL gentamycin (Sigma) and harvested in the exponential phase for conducting the experiments. Cultures were continuously maintained in logarithmic growth by weekly passages.
(§2) Three different strains of T. cruzi were used for the primary screening on epimastigote forms. For strains MG and JEM, the screening assay was performed with approximately 1 × 10^5 epimastigotes in logaritmic growth phase in 200 μL of supplemented LIT medium per well in 96-well flat bottoned plates (Costar, Corning, Cornig, NY, USA). […] The plates were incubated for 72 h at 28 °C and all experimental conditions were evaluated in triplicate in three independent experiments. The epimastigote growth inhibition was microscopically determined by the Trypan Blue dye exclusion assay and XTT (2,3-bis-(2-methoxy-4-nitro-5-sulfophenyl)-5-[(phenylamino)carbonyl]-2H-tetrazolium hydroxide). Regarding the first method, an aliquot from every culture was suspended in 0.4% trypan blue solution for 5 min and cell viability was determined under microscope by counting live parasites in each condition in a Neubauer chamber. Anti-epimastigote activity percentage was calculated as (Parasite counts in control wells-Parasite counts in experimental wells) × 100/Parasite counts in control wells. Trypanocidal activity over both strains was also measured adding 50 μL of XTT solution per well to obtain a final concentration of 0.3 mg/mL. The plate was re-incubated 24 h in the dark at 37 °C and orange formazan solution formed, was spectrophotometrically quantified at 450 nm with a 630 nm reference filter, using an Ear400FT ELISA reader.
(§3) Furthermore the Selectivity Index (SI = mammalian cell LC50/epimastigote IC50) for each compound was calculated to compare the antiprotozoal activity with its respective mammalian cell cytotoxicity.

[2] = system: Trypanosoma cruzi epimastigotes strain JEM (MHOM/CO/05/JEM); assay: Epimastigote susceptibility assay, JEM strain (Trypan Blue and XTT); assay type: cell-based; settings: for JEM Strain SI (Selectivity Index: LC50-macrophages/IC50-epimastigotes): JEM strain epimastigotes vs J774.2 macrophages; for IC50 / JEM Strain PNFX (potency relative to NFX = IC50-NFX/IC50-compound; also called NI): epimastigotes, JEM strain; for IC50: 72 h at 28 °C, 0.1-70.0 µM, mean ± SEM
Experimental: as §1, §2, §3

in vitro = settings: mouse
Experimental: (§4) The mouse cell lines J774.2 macrophages and NCTC clone 929 fibroblasts were used and cultured in plastic culture flasks. J774.2 and NCTC-929 cells were grown using DMEM and BME without phenol-red, respectively. Both media were supplemented with 10% heat inactivated fetal calf serum, 2 mM glutamine, 100 U/mL penicillin and 100 μg/mL streptomycin. Cell cultures were maintained at 37 °C in a humidified atmosphere containing 5% CO2 and subpassaged once a week. Cells in the pre-confluence phase were harvested with an EDTA-trypsin solution for the experiments.
(§5) Unspecific cytotoxicity was evaluated over phagocytic macrophages J774.2 cell line. To study cytotoxicity on J774.2 cells, 200 μL of a suspension of 2 × 10^5 macrophages/mL were added to 96 well flat-bottom microplates (Sigma). Cells were allowed to attach for 24 h at 37 °C and then exposed to the compounds for 72 h at the same concentrations as used for drug screening. […] Each concentration was assayed by triplicate, in independent experiments. Cytotoxicity was assessed by the Trypan Blue and XTT techniques and LC50 was calculated as described above.

J774.2 macrophages = assay: in vitro; settings: macrophages LC50 relative to NFX
Experimental: as §4, §5

[3] = system: Trypanosoma cruzi epimastigotes CL Brener strain clone B5 (CL-B5); assay: Epimastigote susceptibility assay, CL-B5 clone (β-galactosidase activity, CPRG); assay type: cell-based; settings: Trypanosoma cruzi; epimastigotes, CL-B5 clone, 72 h at 28 °C, β-galactosidase readout, mean ± SEM
Experimental: as §1
Trypanocidal activity against CL-B5 strain was also assessed by measuring β-galactosidase activity. Briefly, log-phase epimastigotes were seeded in 96-well microplates at a density of 2.5 × 10^5 parasites/mL in a final volume of 200 μL/well and incubated within the compounds for 72 h at 28 °C. Afterwards, 50 μL of the β-galactosidase substrate chlorophenol red β-D-galactopyranoside (CPRG, Roche) in 0.9% Triton X-100 (Panreac) solution were added to each well (200 μM, pH 7.4) and the plates incubated at 37 °C for 3 h. Anti-epimastigote activity was estimated by reading absorbance at 595 nm. Each concentration was assayed by triplicate, in three independent experiments. […] In all spectrophotometric assays, anti-epimastigote activity percentages were calculated as (OD control wells − OD experimental wells) ×100/OD control wells.
as §3

[4] = system: Trypanosoma cruzi amastigotes CL-B5 clone; assay: Amastigote susceptibility assay, CL-B5 clone in NCTC-929 fibroblasts (CPRG); assay type: cell-based; settings: Trypanosoma cruzi, NCTC929, 168 h; intracellular amastigotes in NCTC-929 fibroblasts, 7 days, mean ± SEM
Experimental: For the anti-amastigote assays, axenic cultures of epimastigotes reaching their stationary phase of growth (14 day-old cultures) were used to infect non-confluent monolayers of NCTC-929 fibroblasts to obtain tissue culture derived trypomastigotes (TCT). After 24 h at 33 °C in a humidified 5% CO2 atmosphere, the infected cultures were washed with phosphate buffer saline (PBS) to removed non-penetrated epimastigotes. TCT were harvested from the supernatant of the cultures after one week of incubation in these conditions of temperature and humidity.
For this assay, 120 μL of BME containing 10,000 NCTC-929 fibroblasts/well were seeded in 48-well plates (Costar) and after their attachment, infected with TCT obtained as above in a 1:6 cell-parasite ratio. The plates were incubated at 33 °C and 5% CO2 overnight and after the infection, experimental wells were washed with PBS to eliminate non-penetrated TCT. […] Then, 50 μL of a CPRG solution in 3% Triton X-100 (pH 7.4) were added to each well in a final concentration of 400 μM and the plates incubated 3 h at 37 °C. Finally, anti-amastigote activity was estimated by reading absorbance at 595 nm in a plate reader (Infinite 200, Tecan) and calculated as in Fonseca-Berzal et al.. IC50 and NI indexes were calculated as above.

[5] = chronic cases of Chagas disease
[6] = Trypanosoma cruzi, 72 h, epimastigotes

| Compound | IC50 [1, 6] [µM] | MG Strain PNFX (potency relative to NFX = IC50-NFX/IC50-compound; also called NI) ([1]; epimastigotes) | IC50 ([2]; Trypanosoma cruzi, 72 h) [µM] | JEM Strain PNFX (potency relative to NFX = IC50-NFX/IC50-compound; also called NI) [2] | IC50 ([1]; epimastigotes) [µM] | IC50 [2] [µM] | average cure rate (Chagas disease; acute cases of Chagas disease) [%] | mild to moderate dermatitis (Chagas disease; adults) | average cure rate (Chagas disease; [5]) | MG Strain SI (Selectivity Index: LC50-macrophages/IC50-epimastigotes) [1] | JEM Strain SI (Selectivity Index: LC50-macrophages/IC50-epimastigotes) [2] | CC50 at 72 h (in vitro) [µM] | times greater activity on the MG strain than the JEM strain ([1]; epimastigotes, MG vs JEM IC50) | times less toxic than NFX (J774.2 macrophages) | IC50 [3] [µM] | IC50 [4] [µM] |
| --- | --- | --- | --- | --- | --- | --- | --- | --- | --- | --- | --- | --- | --- | --- | --- | --- |
| O=C(Cn1ccnc1[N+](=O)[O-])NCc1ccccc1 [Bz, benznidazole] |  |  |  |  |  |  | ~80 | up to 30% | less than 20% |  |  |  |  |  |  |  |
| CCCCCCCCCCC(N)CO (stereo not drawn) [Compound 1] | 14.5 ± 3.15 | 1.5 | 33 ± 1.7 | 0.4 |  |  |  |  |  | 1.0 | 0.4 | 14 ± 0.9 |  |  |  |  |
| CCCCCCCCCCC(CO)NCCCCCC (stereo not drawn) [Compound 4] | 21.1 ± 1.25 | 1.0 | 37.2 ± 1.25 | 0.4 |  |  |  |  |  | 1.7 | 1.0 | 36.1 ± 2.3 |  |  |  |  |
| CCCCCCCCCCCCCCCCC(CO)NCCCCCC (stereo not drawn) [Compound 8] | > 70 |  | > 70 |  |  |  |  |  |  |  |  | 26 ± 0.2 |  |  |  |  |
| CCCCCCCCCCCCCCC(N)COCc1ccccc1 (stereo not drawn) [Compound 12] | 34.4 ± 1.8 | 0.6 | 28.8 ± 1.2 | 0.5 |  |  |  |  |  | 0.8 | 1.0 | 27.7 ± 0.1 |  |  |  |  |
| CCCCCCCCCCCCCCC(COCc1ccccc1)NCCCC (stereo not drawn) [Compound 13] | > 70 |  | > 70 |  |  |  |  |  |  |  |  |  |  |  |  |  |
| CCCCCCCCCCCCCCCCC(CN)NC(=O)OC(C)(C)C (stereo not drawn) [Compound 16] | 13.9 ± 1 | 1.5 | 6.7 ± 2.1 | 2.2 |  |  |  |  |  | 1.7 | 3.6 | 24.1 ± 0.2 |  |  |  |  |
| CCCCCCCCCCCCCCC(CNCCCCCC)NC(=O)OC(C)(C)C (stereo not drawn) [Compound 17] | 26.7 ± 0.25 | 0.8 | 30.6 ± 0.65 | 0.5 |  |  |  |  |  | 0.2 | 0.1 | 4.2 ± 0.05 |  |  |  |  |
| CCCCCCCCCCCCCCC(CN(CCCCCC)CCCCCC)NC(=O)OC(C)(C)C (stereo not drawn) [Compound 18] | > 70 |  | > 70 |  | > 70 | > 70 |  |  |  |  |  |  |  |  |  |  |
| CCCCCCCCCCCCCCC(N)CNCCCCCC (stereo not drawn) [Compound 20] | 42.2 | 0.6 | > 70 | 0.3 | 32.9 ± 1.25 | 48.8 ± 1.05 |  |  |  | 0.2 | 0.1 | 5 ± 0.1 |  |  |  |  |
| CC1CS(=O)(=O)CCN1/N=C/c1ccc([N+](=O)[O-])o1 (stereo not drawn) [NFX, nifurtimox, reference compound] | 21.2 ± 1.16 |  | 14.8 ± 1.24 |  |  |  |  |  | less than 20% |  |  |  |  |  | 10.4 ± 1.3 | 0.6 ± 0.01 |

Second part, led by results:

| IC50 [1, 6] [µM] | MG Strain PNFX (potency relative to NFX = IC50-NFX/IC50-compound; also called NI) ([1]; epimastigotes) | IC50 ([2]; Trypanosoma cruzi, 72 h) [µM] | JEM Strain PNFX (potency relative to NFX = IC50-NFX/IC50-compound; also called NI) [2] | IC50 ([1]; epimastigotes) [µM] | IC50 [2] [µM] | Compound | average cure rate (Chagas disease; acute cases of Chagas disease) [%] | mild to moderate dermatitis (Chagas disease; adults) | average cure rate (Chagas disease; [5]) | MG Strain SI (Selectivity Index: LC50-macrophages/IC50-epimastigotes) [1] | JEM Strain SI (Selectivity Index: LC50-macrophages/IC50-epimastigotes) [2] | CC50 at 72 h (in vitro) [µM] | times greater activity on the MG strain than the JEM strain ([1]; epimastigotes, MG vs JEM IC50) | times less toxic than NFX (J774.2 macrophages) | IC50 [3] [µM] | IC50 [4] [µM] |
| --- | --- | --- | --- | --- | --- | --- | --- | --- | --- | --- | --- | --- | --- | --- | --- | --- |
| 46.2 ± 2.5 | 0.5 | 9.9 ± 1.65 | 1.5 |  |  | CCCCCCCCCCCCCCCCC(N)CO (stereo not drawn) [Compound 3] |  |  |  | 0.1 | 0.3 | 3 ± 0.24 |  |  |  |  |
| 6 | 3.5 | > 70 |  | 6.1 ± 0.15 | > 70 | CCCCCCCCCCCCCCC(CO)NCCCCCC (stereo not drawn) [Compound 7] |  |  |  | 1.3 |  | 8.2 ± 1.55 | 11 |  |  |  |
| 39.2 ± 0.2 | 0.5 | 50.5 ± 0.7 | 0.3 |  |  | CCCCCCCCCCC(CO)N(CCCC)CCCC (stereo not drawn) [Compound 9] |  |  |  | 1.6 | 1.3 | 63.7 ± 0.73 |  | 1.3 |  |  |
| > 70 |  | > 70 |  |  |  | CCCCCCCCCCCCCCC(CO)N(CC)CC (stereo not drawn) [Compound 10] |  |  |  |  |  | 5.6 ± 0.27 |  |  |  |  |
| > 70 |  | 50.3 ± 0.1 | 0.3 |  |  | CCCCCCCCCCCCCCCCC(CO)N(CCCC)CCCC (stereo not drawn) [Compound 11] |  |  |  |  |  |  |  |  |  |  |
| 19.2 ± 2.9 | 1.1 | 26.6 ± 0.7 | 0.6 |  |  | CCCCCCCCCCCCCCC(N)CN (stereo not drawn) [Compound 19] |  |  |  | 4.1 | 2.9 | 78.1 ± 0.85 |  |  |  |  |
| 42.2 ± 1.4 | 0.5 | > 70 |  |  |  | CCCCCCCCCCCCCCCCC(N)CN(CC)CC (stereo not drawn) [Compound 21] |  |  |  | 0.2 |  | 9.3 ± 0.5 |  |  |  |  |
